The text below walks through data of patent publication US9176131B2, “Method for diagnosing and treating Crohn's disease” (priority 2004, dated 2015).

The experiment deals with E. coli LF82 strain (adhesion to the brush border of the enterocytes via the type 1 pili). Kind of experiment: Assay of inhibition by D-mannose of adhesion of E. coli LF82 to isolated enterocytes. Particulars: for Adhesion index with 2% D-mannose: 2% (w/v) D-mannose, mean number of bacteria adhering to the brush border of an enterocyte; for Adhesion index (% relative) with 2% D-mannose: compared with absence of D-mannose = 100%. Type of experiment: cell-based, Escherichia coli. The procedure:
The adhesion trials were performed as described in Darfeuille-Michaud et al., (1990); S. Knutton et al., (1985) and B. Lafeuille et al., (1981). The frozen intestinal samples were washed 3 times in PBS and the ileal mucosa was scraped with a cover glass in order to detach the enterocytes in PBS buffer supplemented with 0.25 M EDTA. About 10^5 isolated enterocytes were mixed with 10^8 E. coli cells in MEM medium containing 10% fetal calf serum (FCS, Seromed). After incubating for 2 hours at 37° C. and with gentle stirring, the enterocytes were washed 3 times in PBS (pH 7.2). The adhesion of the bacteria was quantified by examining under a phase contrast microscope at magnification×1000. The counting was performed according to a double blind design in order to determine the number of E. coli adhering to the brush border of 30 to 50 enterocytes. The adhesion index is expressed as number of bacteria attached to the brush border of one enterocyte.
The inhibitory power of D-mannose on the adhesion of the E. coli LF82 strain to the brush border of the enterocytes via the type 1 pili was tested. Adhesion trials were performed in the presence of 2% (w/v) D-mannose (Sigma) in MEM containing 10% FCS, the procedure being carried out as described above on enterocytes obtained from 3 CD patients (A, B and C) The results are presented in Table 3.

With `O=C[C@@H](O)[C@@H](O)[C@H](O)[C@H](O)CO` [D-mannose], the “Adhesion index with 2% D-mannose” value reads like this: (enterocytes of CD patient A) 0.028; (enterocytes of CD patient B) 0.032; (enterocytes of CD patient C) 0.025. Also, the “Adhesion index (% relative) with 2% D-mannose” value is listed as 2.7% (enterocytes of CD patient A), 2.1% (enterocytes of CD patient B) and 1.4% (enterocytes of CD patient C). Besides, the “Effect on index of adhesion of the LF82 strain to the brush border of the enterocytes” value (enterocytes of patients suffering from Crohn's disease, 2% D-mannose) is reported as “significant reduction”.
